Measurements published in patent US11452716B2, “Pharmaceutical composition and use thereof” (Ascentage Pharma (Suzhou) Co., Ltd., priority 2018, dated 2022).
Several values for one entry are separate records, joined by “and”; a condition that tells them apart may be missing. Equal values may be shown once.

Legend:
[1] = system: liposarcoma patient-derived xenograft (LP-19-0029 PDX); test: Antitumor activity in subcutaneous liposarcoma patient-derived xenograft (LP-19-0029 PDX) model; format: in vivo, Balb/c nude mice; details: for T/C (%) @D 21 / RTV @D 21: Embodiment 2, day 21, Compound C 80 mg/kg p.o. Q2D x 16D, Palbociclib 50 mg/kg p.o. QD x 3W; for RTV @D 21: mean ± SEM, n=5; for RTV @D 22 / T/C(%) @D 22: day 22, Compound C 40 mg/kg p.o. q.2d x 3w, Palbociclib 50 mg/kg p.o. q.d x 3w, Ribociclib 75 mg/kg p.o. q.d x 3w
Description: Animals: Balb/c nude, female, 6-8 weeks, weighing approximately 18-22 g. A total of 40 (20 plus 100%) will be needed for the study, which will be purchased from Shanghai SLAC Laboratory Animal Co., LTD. Generation of the subcutaneous liposarcoma patient-derived xenograft (LP-19-0029 PDX) Model: The LP-19-0029 PDX model was originally established from a surgically resected clinical sample (cancer type: liposarcoma; pathology diagnosis: dedifferentiated liposarcoma), and implanted in nude mice defined as passage 0 (P0). The next passage implanted from P0 tumor was defined as passage 1 (P1), and so on during continual implantation in mice. The frozen tumor fragments will be revived in NOD SCID mice, when the tumors develop to suitable size, they will be passaged to Balb/c nude mice. The P4-P7 tumors will be used for the study. Each mouse was implanted subcutaneously at the right flank with the LP-19-0029 P4 tumor slices (about 30 mm^3) for tumor development. Treatments were started when the average tumor size reached approximately 150 mm^3. The animals were assigned into groups using an Excel-based randomization software performing stratified randomization based upon their tumor volumes. Each group consisted of 5 tumor-bearing mice. [table] Tumor volumes were measured twice weekly in two dimensions using a caliper, and the volume was expressed in mm^3 using the formula: Tumor Volume(mm^3)=0.5a×b^2 where a and b are the long and short diameters of the tumor, respectively. Relative tumor volume (RTV) was calculated using the following formula: RTV=Vt/Vl where Vl and Vt are the average tumor volumes on the first day of treatment (day 1) and the average tumor volumes on a certain time point (day t). Synergy score was calculated using the following formula described in Clarke R. Issues in experimental design and endpoint analysis in the study of experimental cytotoxic agents in vivo in breast cancer and other models[J]. Breast Cancer Research & Treatment, 1997, 46(2-3):255-278, which is incorporated by reference in its entirety: Synergy score=(([…]); where A is RTV value of drug A; B is RTV value of drug B; C is RTV value of vehicle control. AB is RTV value of combination treatment with A and B. Synergy scores: >1 represents synergistic, =1 represents additive, <1 represents antagonistic (referring to Gould S E et al. Translational value of mouse models in oncology drug development. Nature medicine. 2015 21, 431-439). Standard NCI procedures were used to calculate tumor parameters. Percent tumor growth inhibition (% T/C) was calculated as the mean RTV of treated tumors (T) divided by the mean RTV of control tumors (C)×100%. The percentage T/C value is an indication of antitumor effectiveness: a value of T/C<42% is considered significant antitumor activity by the NCI. A T/C value<10% is considered to indicate highly significant antitumor activity, and is the level used by the NCI to justify a clinical trial if toxicity and certain other requirements are met (termed DN-2 level activity). A body weight loss nadir (mean of group) of greater than 20%, or greater than 20% of drug deaths are considered to indicate an excessively toxic dosage. Summary statistics, including mean and the standard error of the mean (SEM), are provided for the tumor volume of each group at each time point. Statistical analysis of difference in the tumor volume among the groups were conducted on the data obtained at the best therapeutic time point after the final dose. A one-way ANOVA was performed to compare the tumor volume and the tumor weight among groups, and when a significant F-statistics (a ratio of treatment variance to the error variance) was obtained, comparisons between groups were carried out with Games-Howell test. All data were analyzed using SPSS 17.0. p<0.05 is considered to be statistically significant. […]

[2] = system: lung cancer patient-derived xenograft (LU-01-0448 PDX); test: Antitumor activity in subcutaneous lung cancer patient-derived xenograft (LU-01-0448 PDX) model; format: in vivo, mice; details: Embodiment 4; for mRECIST / Response @ D 33: animals per category, PD progressive disease, SD stable disease, PR partial response; for T/C(%) @ D 33 / RTV @ D 33 / Response @ D 33: day 33; for T/C(%) @ D 33 / RTV @ D 33: Compound C 100 mg/kg p.o. QD x 5 D, Palbociclib 50 mg/kg p.o. QD x 21 D; for RTV @ D 33: n=2
Experimental: Tumor volumes were measured twice weekly in two dimensions using a caliper, and the volume was expressed in mm^3 using the formula: Tumor Volume(mm^3)=0.5a×b^2 Relative tumor volume (RTV) was calculated using the following formula: RTV=Vt/Vl Synergy score=(([…]); where A is RTV value of drug A; B is RTV value of drug B; C is RTV value of vehicle control. AB is RTV value of combination treatment with A and B. Synergy scores: >1 represents synergistic, =1 represents additive, <1 represents antagonistic (referring to Gould S E et al. Translational value of mouse models in oncology drug development. Nature medicine. 2015 21, 431-439). Standard NCI procedures were used to calculate tumor parameters. Percent tumor growth inhibition (% T/C) was calculated as the mean RTV of treated tumors (T) divided by the mean RTV of control tumors (C)×100%. The percentage T/C value is an indication of antitumor effectiveness: a value of T/C<42% is considered significant antitumor activity by the NCI. A T/C value<10% is considered to indicate highly significant antitumor activity, and is the level used by the NCI to justify a clinical trial if toxicity and certain other requirements are met (termed DN-2 level activity). A body weight loss nadir (mean of group) of greater than 20%, or greater than 20% of drug deaths are considered to indicate an excessively toxic dosage. Compound C was further tested in combination with palbociclib in another patient-derived xenograft model (LU-01-0448 PDX model). LU-01-0448 PDX model was a subcutaneous lung cancer patient-derived xenograft model, which was established according to the procedures of LP-19-0029 PDX model in embodiment 2. This experiment was carried out according to Table 4 and the procedures described in embodiment 2. [table]

| Structure (SMILES) | T/C (%) @D 21 [1] [%] | T/C (%) @D 21 ([1]; listed as compound C) [%] | RTV @D 21 [1] | RTV @35 ([1]; Embodiment 3, @35, Compound C 40 mg/kg, Palbociclib 50 mg/kg, Ribociclib 75 mg/kg) | RTV @D 22 ([1]; Embodiment 3) | T/C(%) @D 22 ([1]; Embodiment 3) | mRECIST [2] | T/C(%) @ D 33 [2] [%] | RTV @ D 33 [2] | Response @ D 33 [2] | T/C(%) @D 22 ([1]; Embodiment 3, listed as palbociclib) [%] | T/C(%) @D 22 ([1]; Embodiment 3, listed as ribociclib) [%] |
| --- | --- | --- | --- | --- | --- | --- | --- | --- | --- | --- | --- | --- |
| CCN1[C@@H](C(=O)NC23CCC(C(=O)O)(CC2)CC3)[C@H](c2cccc(Cl)c2F)[C@]2(C(=O)Nc3cc(Cl)ccc32)C12CCCCC2 [Compound C, 4-((3′R,4′S,5′R)-6″-Chloro-4′-(3-chloro-2-fluorophenyl)-1′-ethyl-2″-oxodispiro[cyclohexane-1,2′-pyrrolidine-3′,3″-indoline]-5′-carboxamido)bicyclo[2.2.2]octane-1-carboxylic acid] | 22.28 | 22 | 4.83 ± 1.56 | 10.95 ± 1.66 | 5.24 ± 0.61 | 38.4% and 38.44% | 2/2 SD | 41.43 | 4.85 ± 1.85 | 2/2 PD | – | – |
| CC(=O)c1c(C)c2cnc(Nc3ccc(N4CCNCC4)cn3)nc2n(C2CCCC2)c1=O [Palbociclib, palbociclib] | 70 | – | 15.19 ± 1.31 | – | 11.36 ± 0.96 | 83.50% | 2/2 PD | 35.71 | 4.18 ± 0.80 | 2/2 PD | 83.5 | – |
| CN(C)C(=O)c1cc2cnc(Nc3ccc(N4CCNCC4)cn3)nc2n1C1CCCC1 [Ribociclib, ribociclib] | – | – | – | – | 9.77 ± 1.22 | 71.70% | – | – | – | – | – | 71.7 |
